Measured values published in a melting point compilation (Tetko et al.; mined from patent text by program, amines drawn as free bases though some values may be those of a salt).

With `CCN(CC)S(=O)(=O)c1cc2c(c(C(=O)NCc3ccccc3)c1)OCCO2` the melting point was 125 °C. Compound `CCN1CCc2ccc(Nc3ncc(Cl)c(NCCC(=O)NC)n3)cc2CC1` has a melting point of 206 °C. For `CC(C#N)c1cc(O)cc2cc(-c3ccc(O)cc3)oc12` (stereo not drawn), the melting point was 183 to 185 °C. `O=C(O)c1cncc(-c2cnc3c(c2)N(Cc2cc(F)ccc2F)CCN3)c1` gave a melting point of 255 to 260 °C. With `CC(C)Oc1cc(CCC(=O)NS(=O)(=O)CCCc2ccccc2)n(Cc2ccc(Cl)cc2Cl)n1` the melting point was 132 to 134 °C. Work on `CCNn1cc(C(=O)O)c(=O)c2ccc(C)nc21` yielded a melting point of 166 to 169 °C. With `Cc1cc(-n2ccc(OCCc3ccccc3)cc2=O)sc1C(=O)NCc1ccccc1` the melting point was 159 to 160 °C. Work on `CCC(=O)NNC(=O)c1ccncc1` yielded a melting point of 131 °C. Work on `CC(C(=O)O)c1ccccc1OS(C)(=O)=O` (stereo not drawn) yielded a melting point of 94 to 96 °C. `CCOC(=O)Cc1sc(Sc2cccc(C(=O)OCC)n2)nc1C` showed a melting point of 73 to 75 °C. With `COc1cc(C(=O)NS(=O)(=O)c2ccccc2C)ccc1Cc1cn(C)c2ccc(CC3CCN(C)C3=O)cc12` (stereo not drawn) the melting point was 115 to 135 °C. `COC(=O)c1ccc(C)c(NC(=O)c2cccc([N+](=O)[O-])c2)c1` showed a melting point of 208 to 209 °C. Compound `CC(C#Cc1ccc(Cl)cc1)N(O)C(N)=O` (stereo not drawn) has a melting point of 159 to 161 °C. For `Cc1nc(C(=O)NC(C)(CO[N+](=O)[O-])CO[N+](=O)[O-])cs1`, the melting point was 78 to 81 °C. With `COc1cc(Br)c(C(C)=O)cc1O` the melting point was 110 to 111 °C. Compound `CN(C(=O)OC[C@@]1(C)Cn2cc([N+](=O)[O-])nc2O1)c1ccc(Cl)cc1` has a melting point of 131 to 133 °C. `CC1CCC(Nc2c(C#N)c3ccccc3n2C)=CC1=O` (stereo not drawn) gave a melting point of 194 to 195 °C. Compound `COc1cc(OCc2nc(-c3ccco3)oc2C)ccc1C=O` has a melting point of 111 to 112 °C. In the case of `CCOc1ccc(CC2SC(=N)NC2=O)cc1OCC` (stereo not drawn), the melting point is reported as 171 to 172 °C. `CCN(C(=O)n1nnc2cc(C)c(C)cc21)c1ccccc1` gave a melting point of 136 °C. For `O=Cc1c[nH]c2cc(C(=O)NCC3CCCC3)ccc12`, the melting point was 224 to 225 °C. For `CCOC(=O)C(=O)Nc1nccs1`, the melting point was 174 to 177 °C. With `CN1c2ccc(Cl)cc2C(c2ccccc2Br)=Nc2cccnc21` the melting point was 121 to 123 °C. Work on `CCCCc1ccc(CC(=O)c2ccccc2)cc1` yielded a melting point of 53 to 55 °C. For `O=c1c2ccccc2[nH]c2c(OCCCCBr)cccc12`, the melting point was 180 to 181 °C. With `CC(C)n1cc(C=O)c(-c2ccc([N+](=O)[O-])o2)n1` the melting point was 168 to 170 °C. `NOC(C=CCBr)C(=O)O` (stereo not drawn) gave a melting point of 53 to 55 °C. `C[C@H](NC(=O)CC(Br)C(=O)c1ccc(Br)cc1)C(=O)O` (stereo partly drawn) gave a melting point of 110 to 113 °C. `CC(C)(C)CC(=O)NCc1cccc2c1C(=O)N(C1CCC(=O)NC1=O)C2=O` (stereo not drawn) gave a melting point of 145 to 147 °C. Compound `CC(C)c1ccc2ncc(C(=O)O)c(O)c2c1` has a melting point of 298 °C. `CCN(CC)C(=O)CCc1nc(-c2ccc([N+](=O)[O-])cc2)nc2ccccc12` gave a melting point of 168 °C. Compound `CC(C)(C)c1csc(NC(=O)Nc2ccc(N3CCN(C(=O)Nc4ccc(OCCO)cc4C(F)(F)F)CC3)cc2)n1` has a melting point of 130 to 132 °C. Work on `COCCOc1cc2c(Nc3ccc(Sc4nccn4C)c(Cl)c3)c(C#N)cnc2cc1F` yielded a melting point of 265 to 270 °C. For `Cc1sc(C(N)=O)c2c1-c1c(cnn1C)CC2`, the melting point was 184 to 185 °C. `O=C(NC1CCCCC1)NC1(N=NC2(NC(=O)NC3CCCCC3)CCCCC2)CCCCC1` gave a melting point of 105 to 109 °C. `O=[N+]([O-])c1ccc(C=C/C=C/c2ccc(Cl)c(Cl)c2)cc1` gave a melting point of 125 to 135 °C. `CCN1CCNC(=O)C1c1ccc(Nc2nc(Br)cn(CC)c2=O)cc1` (stereo not drawn) gave a melting point of 152 to 153 °C. For `CNC(=O)CNC(=O)c1cccc(-c2cccc3oc(Cc4cccc(C(F)(F)F)c4)cc23)c1`, the melting point was 135 to 139 °C. For `N#CCC1(C#N)CCC2(CC1)OCCO2`, the melting point was 137 °C. With `O=C(OC1CCN(Cc2ccccc2)CC1)c1ccccc1[N+](=O)[O-]` the melting point was 98 to 99 °C. `CNC(=O)N1CCN(CC(O)COc2ccccc2)CC1` (stereo not drawn) showed a melting point of 91 to 95 °C. Compound `CCCC[C@H](NC(=O)[C@H](CC(C)C)NC(=O)c1ccc(C(F)(F)F)cc1F)C(=O)CSCc1ccco1` has a melting point of 102 to 106 °C. With `CNc1ncnc2c1ncn2/C=C/c1cc(NC(=O)c2cccc(C(F)(F)F)c2)ccc1C` the melting point was 201 °C. `CC(=O)Oc1cnc(C(C)(C)C)nc1O` showed a melting point of 164 °C. For `NC(=O)CCCC1Cc2ccccc2C1`, the melting point was 116 to 118 °C. Compound `CC(Cc1ccc(CCNS(=O)(=O)c2ccccc2)cc1)C(=O)O` (stereo not drawn) has a melting point of 113 to 115 °C. Compound `CS(=O)Cc1nnc(-c2ccc3occ(-c4cccc(OC(F)(F)F)c4)c3c2)o1` (stereo not drawn) has a melting point of 138 to 139 °C. Work on `COc1cccc2c1cc(C(=O)NCCc1ccncc1)n2Cc1cccc(C(=N)NO)c1` yielded a melting point of 220 to 222 °C. `CS(=O)c1ccc(-c2coc3ccc(-c4nnc(N)o4)cc23)cc1` (stereo not drawn) showed a melting point of 284 to 285 °C. Compound `COC(=O)CC1Cc2ccc(OC)cc2NC1=O` (stereo not drawn) has a melting point of 152 to 155 °C. `Fc1cccc(F)c1-c1nc(C(F)(F)F)n(-c2ccccc2C(F)(F)F)n1` gave a melting point of 90 °C. `CCCOc1ccccc1-c1nc2nc(-c3ccccc3)ncc2c(=O)[nH]1` showed a melting point of 203 to 204 °C. Work on `CC(C)(C)OC(=O)COc1ccc(NC(=O)NC(=O)c2ccc(C(N)=S)nc2)cc1` yielded a melting point of 248 to 249 °C. Work on `CC(O)c1ccc2c(NCc3ccc(NC(=O)c4ccc(F)cc4)cc3)nc(N(C)C)nc2c1` (stereo not drawn) yielded a melting point of 232 °C. For `Nc1ccc(SCc2csc(NC=O)n2)cc1`, the melting point was 180 to 182 °C. In the case of `Nc1nc(-c2ccc(CCCCN3CCN(c4cccc(C(F)(F)F)c4)CC3)cc2)cs1`, the melting point is reported as 174 to 179 °C. In the case of `Nc1nccc(-c2c[nH]c3nccc(OCc4ccccc4)c23)n1`, the melting point is reported as over 210 °C. With `CCC(C(=O)N(C)C)n1nc(-c2ccccc2)c(C)c1C` (stereo not drawn) the melting point was 119 to 121 °C. Compound `COc1cc(OC)cc(-c2ncoc2-c2ccc(OC)c(O)c2N)c1` has a melting point of 140 to 143 °C. Work on `C1=C(/C=C/c2ccccc2)CCN(Cc2n[nH]c3ccccc23)C1` yielded a melting point of 207 to 209 °C. For `O=c1ncnc2cc3[nH][nH]cc3cc12`, the melting point was 330 °C. `COC(=O)C1=C(C)NC(C)=C(C(=O)OCCN(C)C)C1c1cccc2nonc12` (stereo not drawn) showed a melting point of 99 °C. Work on `COc1cc(C(=O)N2CCN(C(=O)CNC3CCN(Cc4ccccc4)CC3)C(c3ccc(Cl)c(Cl)c3)C2)cc(OC)c1OC` (racemic) yielded a melting point of 67 to 70 °C. With `OCCc1ccc(Nc2ncc3c(n2)-c2ccccc2C(c2ccc(Cl)cc2)C3)cc1` (stereo not drawn) the melting point was 163 to 164 °C. `Nc1c(Br)cc(Br)cc1S(=O)(=O)C(F)F` showed a melting point of 84 to 88 °C. Compound `CC(=O)ON1C(C)(C)CC(OC(=O)c2ccc(C(=O)OC3CC(C)(C)N(OC(C)=O)C(C)(C)C3)cc2)CC1(C)C` has a melting point of 206 to 212 °C. For `O=C(CNC(=O)c1ccc(/C=C/C(c2cc(Cl)c(Cl)c(Cl)c2)C(F)(F)F)cc1Cl)NCC(F)(F)F` (stereo not drawn), the melting point was 83 to 85 °C. With `CN(C)C=NS(=O)(=O)CCC(C)(C)CC#N` the melting point was 53 to 54 °C. Work on `COC(COc1ccc(Oc2ccccc2)cc1)OC` yielded a melting point of 76.7 °C. With `O=C1c2cc(OCc3ccc4ccccc4n3)ccc2SCC1Cc1ccccc1` (stereo not drawn) the melting point was 127 to 130 °C. With `CCOC(=O)c1cn(C)c2cnc3c(F)c(N4CCC(O)(c5cccc(C(F)(F)F)c5)CC4)ccc3c2c1=O` the melting point was over 260 °C. Work on `O=C(Nc1cnc2c(c1)CCN2)c1cc2cc(F)ccc2n1Cc1cccc(F)c1` yielded a melting point of 230 to 232 °C. With `CN(CCNCc1ccccc1)Cc1ccccc1` the melting point was 83 to 84 °C. With `COC(=O)C1=C(C)NC(C)=C(C(=O)OCCCCCCOc2cc(-c3ccccc3)[nH]n2)C1c1cccc(Cl)c1Cl` (stereo not drawn) the melting point was 68 to 71 °C. Work on `CC(=O)c1ccc(-c2ccc(S)cc2)cc1` yielded a melting point of 126 to 128 °C. Work on `Cc1ccccc1-c1c(NC(=O)Nc2c(C)cccc2C(C)C)c(=O)oc2ccc(Cl)cc12` yielded a melting point of 237 to 238 °C. Compound `O=C(Nc1ccc(-n2nc(C(F)(F)F)cc2C(F)(F)F)cc1)c1ccc(-n2cccc2)cc1` has a melting point of 249 to 252 °C. Work on `COc1ccccc1C1=Nc2ccc(N3CCCC3)cc2C(=O)C1` yielded a melting point of 312 to 313 °C. Compound `Fc1ccc(-c2cc(C(F)(F)F)n3cnc(-c4cccnc4)c3n2)cc1Cl` has a melting point of 188 °C. In the case of `O=C1Nc2ccc(Cl)cc2C1c1ncnc2nn(C3CCCCC3)cc12` (stereo not drawn), the melting point is reported as 294 to 298 °C. `CC(C)(C)OC(=O)N1CCN(c2ccc(NC=O)nc2)CC1` gave a melting point of 178 to 180 °C. Work on `COc1ccc(CN2C(=O)c3c(-c4ccccc4Cl)cc4c(c3C2=O)c2cc(OC)ccc2n4CC(O)CO)c(OC)c1` (stereo not drawn) yielded a melting point of 151 to 156 °C. In the case of `CN(CCOCCO)S(=O)(=O)c1ccc(NC=C2C(=O)Nc3ccc4ncsc4c32)cc1`, the melting point is reported as 165 °C. In the case of `Cc1nc(-n2cc(-c3ccc(F)cc3)nn2)sc1C(=O)NCc1ccccc1`, the melting point is reported as 203 to 205 °C. With `Cc1c(Cl)cc(C(=O)C=CC(=O)O)cc1Cl` the melting point was 206 to 216 °C. `CCc1nc(=O)c(CCC(=O)O)c(C)n1Cc1ccc(-c2ccccc2-c2nnn[nH]2)cc1` showed a melting point of 317 to 322 °C. For `Cc1ccnc(SCc2nccc(SCCCSc3ccc4ncc([N+](=O)[O-])n4n3)c2C)n1`, the melting point was 136 to 138 °C. For `S=C(NCc1ccccc1)N1CCc2c([nH]c3ccccc23)C1c1ccc2c(c1)OCO2` (stereo not drawn), the melting point was 205 to 207 °C. `CCC(=NOC)c1cc(I)c(O)c(CN)c1` showed a melting point of 156 to 157 °C. Compound `CCNC(=S)C1=CC(CF)(CF)Oc2ccc(C(F)(F)F)cc21` has a melting point of 65 to 67 °C. `O=C(NCc1ccccc1)c1cc(O)c(O)c([N+](=O)[O-])c1` showed a melting point of 185 to 189 °C. `N#CC(=Cc1ccc[nH]1)c1cccnc1` showed a melting point of 139 to 142 °C. `Cn1c(-c2ccc(-c3ccccn3)cc2)c(C(=O)O)c(=O)n1-c1ccc(C#N)cc1` showed a melting point of 155 to 166 °C. `CCCCCCCCCCCCCCCCCC(=O)NCC(O)C(C)(O)CCCC(C)CCCC(C)CCCC(C)C` (stereo not drawn) gave a melting point of 47 to 48 °C. `CCCCc1nc2c(N)nc(C)c(C)c2n1CCCCNS(C)(=O)=O` gave a melting point of 130 °C. With `Nc1ncc(-c2ccccc2)nc1Oc1ccccc1` the melting point was 129 to 131 °C. Compound `CN(C)C1(c2ccc(F)cc2)CCC(=CC(=O)N2CCC(c3c[nH]c4ccccc34)C2)CC1` (stereo not drawn) has a melting point of 109 to 112 °C. Work on `CCOC(=O)C(CNC(=O)c1ccccc1)C(=O)C(F)(F)F` (stereo not drawn) yielded a melting point of 85 to 88 °C.
